Experimental findings from patent publication US8501783B2, “Conformationally restricted urea inhibitors of soluble epoxide hydrolase” (The Regents of the University of California, priority 2006, dated 2013) are described below.

A short description of series [1]: Pharmacokinetic screening in dogs, oral administration, plasma LC-MS/MS. Particulars: for AUC: dog, plasma, po, 0.3 mg/kg.
Series [2] deals with human sEH (Homo sapiens (Human), UniProt P34913). Kind of series: Inhibition of human soluble epoxide hydrolase (IC50; one of three substrate methods).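 Note: enzyme expressed in baculovirus and affinity-purified, assays run in triplicate, with substrate and read-out differing among the three methods.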 It is filed as biochemical.
human sEH, sequence (P34913 whole entry): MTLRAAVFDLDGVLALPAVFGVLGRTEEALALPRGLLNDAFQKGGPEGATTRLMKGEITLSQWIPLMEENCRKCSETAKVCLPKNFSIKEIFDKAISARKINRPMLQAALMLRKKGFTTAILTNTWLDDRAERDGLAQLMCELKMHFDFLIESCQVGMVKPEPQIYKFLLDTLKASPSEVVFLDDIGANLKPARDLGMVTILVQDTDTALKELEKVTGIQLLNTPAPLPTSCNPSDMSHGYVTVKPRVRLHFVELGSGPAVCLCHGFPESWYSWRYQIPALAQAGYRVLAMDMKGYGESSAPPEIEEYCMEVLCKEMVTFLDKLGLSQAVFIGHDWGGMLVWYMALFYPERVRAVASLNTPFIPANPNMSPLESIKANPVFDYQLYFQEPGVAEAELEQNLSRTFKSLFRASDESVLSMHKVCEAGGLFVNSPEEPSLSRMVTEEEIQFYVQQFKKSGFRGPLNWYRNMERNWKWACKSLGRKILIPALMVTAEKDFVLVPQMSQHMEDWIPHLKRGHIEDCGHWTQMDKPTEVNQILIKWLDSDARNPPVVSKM
Series [3] in a line: Solubility in oil of the dosing preparation (compound in Crisco). Particulars: appearance in oil, in parentheses after compound number. It is filed as physicochemical. An excerpt: The dogs are fed immediately thereafter.

pIC50: −log10 of the molar value. Like-named read-outs stand apart in the source and are kept apart here.

The AUC is concentration integrated over time. Read a low AUC as less exposure. The pIC50 is the IC50 on a negative log10 scale, so that one unit is a factor of ten.

As to `CS(=O)(=O)N1CCC(NC(=O)NC23CC4CC(CC(C4)C2)C3)CC1` [Compound 1701, 1-Adamantan-1-yl-3-(1-methanesulfonyl-piperidin-4-yl)-urea], the AUC in series [1] was 81.7 nM·h. For the same molecule, the negative-log IC50 (pIC50) in series [2] (recombinant human sEH) is 8.85.
As for `COC(=O)N1CCC(NC(=O)NC23CC4CC(CC(C4)C2)C3)CC1` [Compound 1702, 4-(3-Adamantan-1-yl-ureido)-piperidine-1-carboxylic acid methyl ester], in series [1], the AUC was 90 nM·h. In series [2] (recombinant human sEH), the negative-log IC50 (pIC50) was 9.05.
Regarding `O=C(NC1CCN(C(=O)C(F)(F)F)CC1)NC12CC3CC(CC(C3)C1)C2` [Compound 1606], in series [3], the solubility in oil is reported as 1606 (Suspension). Also, in series [1], the AUC was 43.3 nM·h. The “AUCINF_D_pred” value in series [1] (dogs, oral, dose-normalised) was 8553 kg·nM·min/mg. Besides, the “LC/MS analysis, plasma level at time 0” value in series [1] (dogs, single oral dose (0.3 mg/kg per FIG. 1), time 0 min) turned out to be 0.00. Also, the “LC/MS analysis, plasma level at time 15” value in series [1] (dogs, single oral dose (0.3 mg/kg per FIG. 1), time 15 min) stood at 0.00. In series [1] (dogs, single oral dose (0.3 mg/kg per FIG. 1), time 30 min), the “LC/MS analysis, plasma level at time 30” value was determined as 1.61. Further, the “LC/MS analysis, plasma level at time 60” value in series [1] (dogs, single oral dose (0.3 mg/kg per FIG. 1), time 60 min) was found to be 4.82. In series [1] (dogs, single oral dose (0.3 mg/kg per FIG. 1), time 120 min), the “LC/MS analysis, plasma level at time 120” value was found to be 9.37. The “LC/MS analysis, plasma level at time 180” value in series [1] (dogs, single oral dose (0.3 mg/kg per FIG. 1), time 180 min) is recorded as 10.98. Also, the “LC/MS analysis, plasma level at time 240” value in series [1] (dogs, single oral dose (0.3 mg/kg per FIG. 1), time 240 min) is listed as 6.83. Besides, the “LC/MS analysis, plasma level at time 300” value in series [1] (dogs, single oral dose (0.3 mg/kg per FIG. 1), time 300 min) worked out at 5.62. Besides, the “LC/MS analysis, plasma level at time 360” value in series [1] (dogs, single oral dose (0.3 mg/kg per FIG. 1), time 360 min) is reported as 3.21. Moreover, in series [1] (dogs, single oral dose (0.3 mg/kg per FIG. 1), time 480 min), the “LC/MS analysis, plasma level at time 480” value is listed as 1.47.
As to `CC(=O)N1CCC(NC(=O)NC2CCCCCC2)CC1` [Compound 1645, 1-(1-Acetyl-piperidin-4-yl)-3-cycloheptyl-urea], the exposure (AUC) in series [1] is 3680 nM·h. This molecule showed a negative logarithm of the IC50 (pIC50) in series [2] of 7.56.
On to `CC(=O)N1CCC(NC(=O)CC23CC4CC(CC(C4)C2)C3)CC1` [Compound 1642], for which the AUC in series [1] is 96.7 nM·h. In series [2] (recombinant human sEH), the pIC50 was 6.56.
As to `Cc1c(COC(=O)NCc2cccnc2)cccc1-c1ccccc1` [Compound 1560, Pyridin-3-ylmethyl-carbamic acid 2-methyl-biphenyl-3-ylmethyl ester], the negative-log IC50 (pIC50) in series [2] (recombinant human sEH) was 5.36.
In turn, `O=C(O)CCCC(=O)N1CCC(NC(=O)NC23CC4CC(CC(C4)C2)C3)CC1` [Compound 1501, 5-[4-(3-Adamantan-1-yl-ureido)-piperidin-1-yl]-5-oxo-pentanoic acid] had a pIC50 in series [2] of 7.14.
Regarding `COC(=O)CCCC(=O)N1CCC(CNC(=O)NC23CC4CC(CC(C4)C2)C3)CC1` [Compound 1212, 5-{4-[(3-Adamantan-1-yl-ureido)-methyl]-piperidin-1-yl}-5-oxo-pentanoic acid methyl ester], the negative-log IC50 (pIC50) in series [2] (recombinant human sEH) was 8.47.
Same read-out and setting: for `O=C(NCC1CCN(C(=O)c2cccc(C(=O)O)c2)CC1)NC12CC3CC(CC(C3)C1)C2` [Compound 1504, 3-{4-[(3-Adamantan-1-yl-ureido)-methyl]-piperidine-1-carbonyl}-benzoic acid] the value was 7.36.
